Source: patent publication US20030133929A1 (priority 2002, published 2003)

Assays:
virus particles = test: electron microscope study of virus particles before and after inactivation; conditions: inactivation for 60 min, 1 min and 30 seconds
HIV virus = conditions: 5 minute contact, room temperature; ether removed by distillation at 50-52° C.; cited from earlier work
[1] = system: Sinbis, Sendai and VSV viruses; conditions: 4° C.; cited from earlier work
[2] = biological target: blood protein factor VIII (Homo sapiens, UniProt P00451); conditions: cited from earlier work
Sequence of blood protein factor VIII (P00451 20-2351): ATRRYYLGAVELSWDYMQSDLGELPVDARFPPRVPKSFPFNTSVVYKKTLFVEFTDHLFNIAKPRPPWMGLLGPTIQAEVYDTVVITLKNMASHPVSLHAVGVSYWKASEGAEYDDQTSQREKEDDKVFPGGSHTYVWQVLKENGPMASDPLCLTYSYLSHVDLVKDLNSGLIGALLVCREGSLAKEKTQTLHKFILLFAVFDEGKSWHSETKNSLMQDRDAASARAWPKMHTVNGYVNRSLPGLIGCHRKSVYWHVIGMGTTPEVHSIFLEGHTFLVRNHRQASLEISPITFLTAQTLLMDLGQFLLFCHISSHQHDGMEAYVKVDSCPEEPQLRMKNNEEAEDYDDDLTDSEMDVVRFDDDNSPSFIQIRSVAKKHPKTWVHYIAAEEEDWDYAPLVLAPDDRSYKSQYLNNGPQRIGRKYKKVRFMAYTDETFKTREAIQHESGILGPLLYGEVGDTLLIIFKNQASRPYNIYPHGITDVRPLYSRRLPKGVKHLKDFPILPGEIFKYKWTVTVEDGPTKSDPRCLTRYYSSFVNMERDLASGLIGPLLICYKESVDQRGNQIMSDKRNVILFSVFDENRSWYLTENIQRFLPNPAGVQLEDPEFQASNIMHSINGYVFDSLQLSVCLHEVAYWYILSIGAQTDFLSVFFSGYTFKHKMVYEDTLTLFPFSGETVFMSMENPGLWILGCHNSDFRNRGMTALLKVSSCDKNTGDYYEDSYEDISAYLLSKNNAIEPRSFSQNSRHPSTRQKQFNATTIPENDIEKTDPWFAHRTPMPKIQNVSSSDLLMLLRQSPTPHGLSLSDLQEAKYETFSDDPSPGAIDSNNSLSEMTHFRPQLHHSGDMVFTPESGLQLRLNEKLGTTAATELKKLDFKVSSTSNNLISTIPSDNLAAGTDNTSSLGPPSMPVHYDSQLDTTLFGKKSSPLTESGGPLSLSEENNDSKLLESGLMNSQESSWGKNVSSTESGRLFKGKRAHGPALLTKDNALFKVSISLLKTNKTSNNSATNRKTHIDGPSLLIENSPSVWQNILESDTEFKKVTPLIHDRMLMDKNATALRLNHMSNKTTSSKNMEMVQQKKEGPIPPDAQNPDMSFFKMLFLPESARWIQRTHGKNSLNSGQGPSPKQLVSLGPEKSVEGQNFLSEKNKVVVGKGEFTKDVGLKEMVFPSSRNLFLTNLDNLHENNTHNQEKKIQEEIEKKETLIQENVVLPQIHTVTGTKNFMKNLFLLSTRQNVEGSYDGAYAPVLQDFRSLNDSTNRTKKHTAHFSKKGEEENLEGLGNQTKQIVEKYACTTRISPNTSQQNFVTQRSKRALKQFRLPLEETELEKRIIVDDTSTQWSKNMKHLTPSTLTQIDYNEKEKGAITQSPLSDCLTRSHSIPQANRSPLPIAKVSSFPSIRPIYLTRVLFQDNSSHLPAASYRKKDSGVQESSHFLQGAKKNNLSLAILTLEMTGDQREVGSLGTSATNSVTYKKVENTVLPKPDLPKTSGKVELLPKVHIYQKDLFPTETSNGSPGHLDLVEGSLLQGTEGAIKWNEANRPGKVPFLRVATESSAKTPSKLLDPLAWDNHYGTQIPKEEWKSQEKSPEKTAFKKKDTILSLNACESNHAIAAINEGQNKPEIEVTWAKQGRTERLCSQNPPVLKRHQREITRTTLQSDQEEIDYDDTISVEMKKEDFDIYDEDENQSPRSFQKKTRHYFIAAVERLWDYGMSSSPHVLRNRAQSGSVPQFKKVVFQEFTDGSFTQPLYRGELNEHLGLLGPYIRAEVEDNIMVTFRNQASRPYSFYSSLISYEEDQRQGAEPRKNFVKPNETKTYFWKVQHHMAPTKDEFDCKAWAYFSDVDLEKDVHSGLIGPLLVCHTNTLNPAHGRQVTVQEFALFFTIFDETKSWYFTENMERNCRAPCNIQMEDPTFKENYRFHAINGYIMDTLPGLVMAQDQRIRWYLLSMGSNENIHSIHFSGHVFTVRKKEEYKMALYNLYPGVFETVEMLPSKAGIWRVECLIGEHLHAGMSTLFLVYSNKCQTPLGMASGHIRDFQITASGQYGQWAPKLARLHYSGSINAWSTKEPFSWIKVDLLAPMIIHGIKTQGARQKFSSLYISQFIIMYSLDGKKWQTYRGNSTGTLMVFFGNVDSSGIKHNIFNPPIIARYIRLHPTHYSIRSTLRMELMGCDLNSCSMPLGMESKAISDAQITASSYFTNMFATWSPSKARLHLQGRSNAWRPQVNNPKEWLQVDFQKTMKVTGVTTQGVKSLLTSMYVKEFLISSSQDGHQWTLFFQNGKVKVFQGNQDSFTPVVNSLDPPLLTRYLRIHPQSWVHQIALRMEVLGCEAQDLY

## CC(C)OC(C)C [DIPE, di-isopropyl ether]
Virus particles
  infectivity or visible virus particles by EM: no infectivity or visible virus particles detected

## CCOCC [diethyl ether]
HIV virus
  inactivation of the HIV virus: complete inactivation
[1]
  time to inactivate these viruses: many hours

## O=C1CCO1 [β-propiolactone]
[2]
  inactivation of factor VIII: up to 75%
